Measurements from publication PMC6173770, “Direct electrical quantification of glucose and asparagine from bodily fluids using nanopores” (Nature Communications, 2018).

Target: T1, SBD1 (Lactococcus lactis, UniProt Q9CES5)
T1 construct: gene glnP; His tag cleaved off by TEV; expressed in E. coli MC1061; SEC purified
T1 sequence (Q9CES5 27-251 limits assumed): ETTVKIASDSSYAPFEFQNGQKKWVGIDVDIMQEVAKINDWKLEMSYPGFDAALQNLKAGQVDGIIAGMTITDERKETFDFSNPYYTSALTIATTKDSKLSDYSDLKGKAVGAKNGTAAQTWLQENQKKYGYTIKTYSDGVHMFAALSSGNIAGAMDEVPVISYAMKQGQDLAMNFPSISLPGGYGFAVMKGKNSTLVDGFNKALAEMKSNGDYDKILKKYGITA
Experiment: single-molecule nanopore current (SBD1 trapped in ClyA-AS), closed fraction vs ligand, Hill fit n = […]
Format: binding
Conditions: 150 mM NaCl, 15 mM Tris-HCl, pH 7.5, 25 °C, -90 mV, asparagine in trans; read-out: Kd^app

NC(=O)C[C@H](N)C(=O)O [asparagine]
Kd: 500 ± 40 nM
